Consider one molecule from patent US5932541A, “Method of adjusting the circadian rhythm of a mammal” (Gruenenthal GmbH, priority 1998, dated 1999).

For one series, the system named is Sprague-Dawley rats. Description: Subacute repeated-dose intravenous toxicity study with four-week recovery.
Another series concerns hamsters. Description: Visual observation of overt behavior for two hours post-injection. The format is in vivo, hamster (Mesocricetus auratus). The method, then:
(§1) Animals were maintained initially in a 14:10 hour light:dark cycle for 7-10 days, then transferred to constant dim red lighting (RR) conditions for the remainder of the experiment (40-60 days). After free-running for 7 days in dim red lighting, animals either received Montirelin or vehicle intraperitoneally. The daily onset of wheel-running activity was defined as circadian time 12 (CT 12), and this time was used as a reference point in determining appropriate circadian injection times. The test animals were divided into eight groups of three animals each, and intraperitoneal injections of the active compound at dosage levels of 10 or 20 mg/kg or of the vehicle alone were administered to respective test groups at circadian time 3 (CT 3) or circadian time 16 (CT 16). The order of injections and time points was randomized. An additional 4 animals maintained in similar lighting conditions were visually observed for two hours post-injection of Montirelin (10 or 20 mg/kg) to determine any overt behavioral effects exerted by this compound. A total of 9 injections were made for each of the eight treatment groups.

For series [1], the system named is circadian rhythm of hamster wheel running activity. As to the kind of experiment: Phase shift of the circadian rhythm of hamster wheel running activity after intraperitoneal injection. The format is in vivo, hamster (Mesocricetus auratus). The method, then:
A preliminary study was conducted to determine whether peripherally administered 6-methyl-5-oxo-3-thiomorpholinyl-carbonyl-L-histidyl-L-prolinamide (Montirelin) is capable of phase shifting the circadian rhythm of hamster wheel running activity. Twenty-four male hamsters [Mesocricetus auratus; 8-12 weeks of age; Charles River LAK:LVG(SYR)] were housed individually in cages equipped with running wheels, and food and water freely available. Animals were maintained in light-tight, ventilated cabinets (six cages per cabinet) in which the lighting schedule could be controlled. Each animal's wheel running activity was monitored continuously throughout each experiment using a data acquisition software kit (Chronobiology, Stanford, Calif.).
as §1
Phase shifts in the circadian activity rhythm were determined by measuring the phase difference between eye-fitted lines connecting the onset of activity for a period of ten days before and ten days after an experimental manipulation.

[2] abbreviates: both sexes, 50 mg/kg, within the range of normal physiological variations.
[3] abbreviates: 20 mg/kg i.p., at both CT 3 and CT 16, individual hamsters.

Description for Sprague-Dawley rats: Eight nine SPF Slc:SD rats of both sexes (age: four weeks, body weight: 70.0-81.6 g) were purchased from Shizuoka Agriculture Cooperative Association for Laboratory Animals. During a one-week quarantine/acclimation period, the animals were measured for body weight and observed for any general symptoms, and healthy animals showing normal growth were selected and used in the experiment at the age of five weeks.
Males and females were used in five groups (including the control group) of 10 animals/sex, and additional 10 animals/sex ere added to the control, 0.5 mg/kg and 50 mg/kg groups to investigate the reversibility of the toxic effect of the test substance. All these animals were randomized to each group by weight stratification so that the differences in initial mean body weight were within 2% between groups.
This study also included the vehicle control group.
Dosing solutions were prepared by dissolving a weighed amount of the test substance in physiological saline at a concentration of 1 W/V % using a volumetric flask. Lower dosing solutions were obtained by successive 10-fold dilution of the initial solution. The respective dosing solution was repeatedly administered intravenously once daily for 35 days into the tail vein at a rate of 0.2 ml/10 sec. using a 1/4 syringe for injection. The treatment was given at a constant volume of 0.5 ml/100 g body weight in all dose groups, and the control group was treated with physiological saline at the same volume in the same manner.
Clinical signs in all animals were observed daily between two and four hours after dosing according to Irwin's method of comprehensive observational assessment, and the type, severity, onset time and disappearance time of toxic symptoms were recorded. During the recovery period, the clinical observation was performed once daily in the morning in the same manner. The body weight, food consumption and water consumption were measured in all animals three times weekly in the morning throughout the treatment and recovery periods and recorded.

For the molecule `CC1SCC(C(=O)N[C@@H](Cc2c[nH]cn2)C(=O)N2CCC[C@H]2C(N)=O)NC1=O` (stereo partly drawn) [Montirelin, 6-methyl-5-oxo-3-thiomorpholinylcarbonyl-L-histidyl-L-prolinamide], the “clinical signs: polyuria” value with Sprague-Dawley rats (5 mg/kg or higher groups, almost all males and females, peak about one hour after dosing day 0-3, disappearing by day 4-28) was “transient polyuria”. Further, the “clinical signs: systemic tremor” value with Sprague-Dawley rats (50 mg/kg group, both sexes, from day 0, disappearing by day 6 in males, day 4 in females) is “systemic tremor was observed transiently during the injection”. Further, in the series on Sprague-Dawley rats (all treatment groups), the blood biochemical parameters result was “No treatment-related abnormalities”; the “gross changes at autopsy” value is “no treatment-related grossly abnormal changes”; the “histopathology of other organs (light microscopy); liver and kidney (electron microscopy)” value was “no remarkable changes”. For the same molecule, the “histopathology: hypertrophy of serous cells in the submaxillary gland” value with Sprague-Dawley rats (both sexes of all treatment groups) is “showed dose-dependency”. Besides, the water consumption result with Sprague-Dawley rats (both sexes receiving 5 mg/kg or above, day 2-3 until about week 4) was “increased”. Besides, in the series with Sprague-Dawley rats (setting [2]), the “red blood cell count, hemoglobin and hematocrit” value is on record as “increasing tendency”; the “total white blood cell count” value is “decreasing tendency”. Further, the “food consumption and body weight, females” value in the series on Sprague-Dawley rats (females) is given as “unremarkable”. Further, in the series with Sprague-Dawley rats (four-week recovery after discontinuing administration), the “reversibility of observed changes” value is recorded as “All observed changes were reversed”. Further, the “urinary findings (urine volume)” value with Sprague-Dawley rats (males and females receiving 5 mg/kg or above, week 2 and 5 of treatment) was “unremarkable except for an increase in urine volume”. Moreover, in the series with Sprague-Dawley rats (males, particularly 0.5, 5 and 50 mg/kg), the “body weight gain, males” value is “suppressed”. Also, the death result in the series with Sprague-Dawley rats (rats, i.v. once daily 35 days, 0.05-50 mg/kg/day, administration and recovery periods) is “no death occurred”. In addition, in the series with Sprague-Dawley rats (treated males compared with control males), the “food consumption, males” value is recorded as “tended to decrease food consumption”. For the same molecule, the “overt behavior versus vehicle” value in the series on hamsters (10 mg/kg i.p. at CTs 3 and 16) is “no differences in overt behavior”. Also, the “overt behavior versus vehicle” value in the series with hamsters (20 mg/kg i.p. at both CT 3 and CT 16) is given as “clear differences in overt behaviors”. Besides, the “Effects on the Phase of Wheel Running Activity, Group Averages” value (“Effects on the Phase” below) in series [1] (10 mg/kg i.p. at CT 3) came out at 4.3 ± 2.2 min. Moreover, in series [1] (10 mg/kg i.p. at CT 16), the “Effects on the Phase” value was 3.5 ± 2.3 min. In series [1] (20 mg/kg i.p. at CT 3), the “Effects on the Phase” value is 5.5 ± 2.4 min. Moreover, the “Effects on the Phase” value in series [1] (20 mg/kg i.p. at CT 16) was determined as 3.1 ± 2.0 min. In series [1] (setting [3]), the “phase advances in individual hamsters” value is listed as “≈ 16 min” and the “phase delays in individual hamsters” value was “≈ 10 min”.
